Assay results as given in patent US20240101546A1, “HETEROARYL-ACETYLENES, PHARMACEUTICAL COMPOSITIONS THEREOF, AND THEIR THERAPEUTIC APPLICATIONS” (Eubulus Biotherapeutics Inc., priority 2020, published 2024).

Each compound was assayed on lung cancer cell line NCI-H82 (assay: Cell proliferation assay, NCI-H82 (CELL-TITER GLO)). Settings: Homo sapiens, NCI-H82, 72 h, NCI-H82 cells, 72 h incubation, cell viability by CELL-TITER GLO, top concentration 1 μM; read-out: EC50, Inhibition of NCl-H82 Cell Proliferation.
Type: cell-based
How it was run: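 NCI-H82 cells, 1,000 per well in RPMI1640, were treated after overnight plating with a 3-fold dilution series from 1 μM. Viability read by CellTiter-Glo luminescence after 72 h. EC50 derived from the curves.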

`C#Cc1nc(NC(=O)N[C@@H](CO)c2ccc(-c3cccc(C4CC4(F)F)c3)cc2)cs1` (stereo partly drawn) [Compound A188, 1-((1R)-1-(3′-(2,2-Difluorocyclopropyl)-[1,1′-biphenyl]-4-yl)-2-hydroxyethyl)-3-(2-ethynylthiazol-4-yl)urea] and `C#Cc1nc(NC(=O)N[C@@H](CO)c2ccc(-c3cccc(N4CC(F)(F)C4)c3)cc2)cs1` [Compound A191, (R)-1-(1-(3′-(3,3-Difluoroazetidin-1-yl)-[1,1′-biphenyl]-4-yl)-2-hydroxyethyl)-3-(2-ethynylthiazol-4-yl)urea] cannot be ordered by EC50: at most 200 nM for the first, at most 200 nM for the second.

`C#Cc1nc(NC(=O)N[C@@H](CO)c2ccc(-c3cccc(C4(O)CCC4)c3)cc2)cs1` [Compound A189, (R)-1-(2-Ethynylthiazol-4-yl)-3-(2-hydroxy-1-(3′-(1-hydroxycyclobutyl)-[1,1′-biphenyl]-4-yl)ethyl)urea] and `C#Cc1nc(NC(=O)N[C@@H](CO)c2ccc(-c3cccc(N4CCC4)c3)cc2)cs1` [Compound A190, (R)-1-(1-(3′-(Azetidin-1-yl)-[1,1′-biphenyl]-4-yl)-2-hydroxyethyl)-3-(2-ethynyl-thiazol-4-yl)urea] cannot be ordered by EC50: at most 200 nM for the first, at most 200 nM for the second.

`C#Cc1nc(NC(=O)N[C@@H](CO)c2ccc(C3CCCN(C)C3)cc2)cs1` (stereo partly drawn) [Compound A192, 1-(2-Ethynylthiazol-4-yl)-3-((1R)-2-hydroxy-1-(4-(1-methylpiperidin-3-yl)-phenyl)ethyl)urea] and `C#Cc1nc(NC(=O)N[C@@H](CO)c2ccc(C3CCCN(C(C)=O)C3)cc2)cs1` (stereo partly drawn) [Compound A194, 1-((1R)-1-(4-(1-Acetylpiperidin-3-yl)phenyl)-2-hydroxyethyl)-3-(2-ethynyl-thiazol-4-yl)urea] fall in the same range of EC50: 200 to 1000 nM for the first, 200 to 1000 nM for the second.

`C#Cc1nc(NC(=O)N[C@@H](CO)c2ccc(C3=CCCN(C)C3)cc2)cs1` [Compound A193, (R)-1-(2-Ethynylthiazol-4-yl)-3-(2-hydroxy-1-(4-(1-methyl-1,2,5,6-tetrahydro-pyridin-3-yl)phenyl)ethyl)urea] and `C#Cc1nc(NC(=O)N[C@@H](CO)c2ccc(N3CCCCC3)cc2)cs1` [Compound A195, (R)-1-(2-Ethynylthiazol-4-yl)-3-(2-hydroxy-1-(4-(piperidin-1-yl)phenyl)ethyl)-urea] cannot be ordered by EC50: 200 to 1000 nM for the first, at most 200 nM for the second.

`C#Cc1nc(NC(=O)N[C@@H](CC#N)c2ccc(-c3cccc4ncsc34)cc2)cs1` [Compound A196, (S)-1-(1-(4-(Benzo[d]thiazol-7-yl)phenyl)-2-cyanoethyl)-3-(2-ethynylthiazol-4-yl)urea] and `C#Cc1nc(NC(=O)N[C@@H](COC)c2ccc(-c3cccc4ncsc34)cc2)cs1` [Compound A200, (R)-1-(1-(4-(Benzo[d]thiazol-7-yl)phenyl)-2-methoxyethyl)-3-(2-ethynylthiazol-4-yl)urea] cannot be ordered by EC50: at most 200 nM for the first, at most 200 nM for the second.

`C#Cc1nc(NC(=O)N[C@@H](CS(C)(=O)=O)c2ccc(-c3cccc4ncsc34)cc2)cs1` [Compound A197, (R)-1-(1-(4-(Benzo[d]thiazol-7-yl)phenyl)-2-(methylsulfonyl)ethyl)-3-(2-ethynyl-thiazol-4-yl)urea] and `C#Cc1nc(NC(=O)N[C@@H](CS(N)(=O)=O)c2ccc(-c3cccc4ncsc34)cc2)cs1` [Compound A198, (R)-2-(4-(Benzo[d]thiazol-7-yl)phenyl)-2-(3-(2-ethynylthiazol-4-yl)ureido)-ethane-1-sulfonamide] cannot be ordered by EC50: at most 200 nM for the first, at most 200 nM for the second.

`C#Cc1nc(NC(=O)N[C@@H](CS(=O)(=O)NC)c2ccc(-c3cccc4ncsc34)cc2)cs1` [Compound A199, (R)-2-(4-(Benzo[d]thiazol-7-yl)phenyl)-2-(3-(2-ethynylthiazol-4-yl)ureido)-N-methylethane-1-sulfonamide] and `C#Cc1nc(NC(=O)N[C@@H](COC(C)=O)c2ccc(-c3cccc4ncsc34)cc2)cs1` [Compound A201, (R)-2-(4-(Benzo[d]thiazol-7-yl)phenyl)-2-(3-(2-ethynylthiazol-4-yl)ureido)ethyl acetate] cannot be ordered by EC50: at most 200 nM for the first, at most 200 nM for the second.
